The target in test [1] is T1, Dihydrofolate reductase (Homo sapiens, UniProt P00374).
T1 sequence (P00374 whole entry): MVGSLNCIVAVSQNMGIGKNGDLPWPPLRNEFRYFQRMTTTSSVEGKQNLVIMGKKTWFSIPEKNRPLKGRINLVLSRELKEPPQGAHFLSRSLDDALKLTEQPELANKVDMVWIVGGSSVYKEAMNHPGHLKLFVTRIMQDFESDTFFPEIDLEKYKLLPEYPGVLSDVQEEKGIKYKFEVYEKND
As to the kind of experiment: Inhibitory activity against Dihydrofolate reductase (DHFR) isolated from CCRF-CEM human leukemia cells in experiment 1. Format: cell-free.

The target of test [2] is T1, Dihydrofolate reductase. The test is described as follows: Inhibitory activity against Dihydrofolate reductase (DHFR) isolated from CCRF-CEM human leukemia cells in experiment 2. Format: cell-free.

As to `CN(Cc1cnc2nc(N)nc(N)c2n1)c1ccc(C(=O)N[C@H](C[C@@H](F)C(=O)O)C(=O)O)cc1`, at Dihydrofolate reductase [1], inhibition was half-maximal at 0.84 nM (IC50).

Regarding `CN(Cc1cnc2nc(N)nc(N)c2n1)c1ccc(C(=O)NC(C(=O)O)C(F)(F)CC(=O)O)cc1` (racemic), the half-inhibitory concentration (IC50) (as a rule, the midpoint of a concentration-inhibition curve) against Dihydrofolate reductase [2] worked out at 1.34 nM.

The molecule `CN(Cc1cnc2nc(N)nc(N)c2n1)c1ccc(C(=O)NC(CC(F)C(=O)O)C(=O)O)cc1` (racemic) showed an IC50 at Dihydrofolate reductase [1] of 1.35 nM.

These data come from ChEMBL document CHEMBL1129679 (J Med Chem, 1996).
